US20230302071A1, “ANTIDEPRESSANT COMPOSITION CONTAINING PLEUROTUS ERYNGII EXTRACT AS ACTIVE INGREDIENT” (KOREA UNIVERSITY RESEARCH AND BUSINESS FOUNDATION, priority 2020, published 2023)

How the values were obtained:
[1] = tested on: mice; assay: Forced swimming test (FST), immobility time; type: in vivo; settings: intraperitoneal, each sample 20 mg/kg, 30 minutes before test, 4-minute period, FIG. 5
Experimental: In order to verify whether the fractions of the Pleurotus eryngii extract according to the present invention actually have antidepressant efficacy, a forced swimming test was performed using experimental animals. The antidepressant efficacy was determined by measuring the immobility time during a forced swimming test, and the less the immobility time, the greater the antidepressant efficacy. To this end, mice were intraperitoneally injected with each of the ethanol extract of Pleurotus eryngii according to the present invention and the primary fraction and the secondary fraction of the ethanol extract, after which the immobility time during a forced swimming test was measured. Each sample was injected in an amount of 20 mg/kg into experimental mice. Also, a Prozac-administered group was used as a positive control. Four mice (n=4) were intraperitoneally injected with each sample and then allowed to stand for 30 minutes, after which the mice were submerged in water for 6 minutes and then washed for a while, water in the water tank was exchanged, and the mice were placed again in the water tank for 4 minutes to conduct this experiment. Statistical processing was performed by measuring the immobility time during the 4-minute experimental period.

[2] = tested on: serotonin receptor-mediated signaling in AGS cell line; assay: Serotonin receptor-mediated signaling in AGS cell line by Western blotting (pErk, pJNK); type: cell-based, human; settings: FIG. 4
Experimental: Whether the fractions of the Pleurotus eryngii extract according to the present invention were involved in serotonin receptor-mediated signaling by treating an AGS cell line known to overexpress serotonin receptors with the fractions of the Pleurotus eryngii extract according to the present invention was evaluated using Western blotting. Here, an anti-pERK antibody, anti-Erk antibody, anti-pJNK antibody, anti-JNK antibody, and anti-α Tubulin antibody were used for western blotting.

SMILES: CNCCC(Oc1ccc(C(F)(F)F)cc1)c1ccccc1 (stereo not drawn) [Prozac]
- reduction in immobility time compared to negative control [1]: 24%

SMILES: NCCc1c[nH]c2ccc(O)cc12 [serotonin]
- expression of phosphorylated pErk [2]: increased
- expression of phosphorylated pJNK [2]: increased
